Laboratory results reported in patent publication US5484934A, “Isothiazole derivatives, a process for production thereof and uses thereof” (Nihon Nohyaku Co., Ltd., priority 1992, dated 1996).

Tests used:
Coriolus versicolor = experiment: Inhibition of hypha growth on malt extract agar, Coriolus versicolor; format: cell-based; settings: Trametes versicolor, 28±2° C., 2 to 10 days, read-out: Controlling effect (growth inhibition rate) COV
Alternaria mali = experiment: Inhibition of hypha growth on malt extract agar, Alternaria mali; settings: read-out: Controlling effect (growth inhibition rate) ALM
Experimental: (§1) Each preparation to be tested was added to malt extract agar medium to adjust the concentration to 50 ppm, and the resulting mixture was dispensed into Petri dishes. As an inoculum, a prepared mycerial tuft of each test fungus was punched out together with agar by means of a 4-mm-diameter cork borer and inoculated on medium. The incubation temperature was adjusted to 28±2° .C (or 18±2° C. in the case of Selupula lacrymas).
(§2) The diameter of mycerial tuft was measured 2 to 10 days after the inoculation, and the inhibition rate of hypha growth (the following equation) was measured.
(§3) The controlling effect was evaluated according to the following criterion.

Serpula lacrymans = experiment: Inhibition of hypha growth on malt extract agar, Serpula lacrymans; settings: read-out: Controlling effect (growth inhibition rate) SEL
Experimental: as §1, §2

Aspergillus niger = experiment: Inhibition of hypha growth on malt extract agar, Aspergillus niger; settings: read-out: Controlling effect (growth inhibition rate) ASN
Experimental: as §1, §2, §3

Trichoderma viride = experiment: Inhibition of hypha growth on malt extract agar, Trichoderma viride; settings: read-out: Controlling effect (growth inhibition rate) TRV
Experimental: as §1, §2

Fusarium oxysporum = experiment: Inhibition of hypha growth on malt extract agar, Fusarium oxysporum; settings: read-out: Controlling effect (growth inhibition rate) FUO
Experimental: as §1, §2, §3

Rhizopus nigricans = experiment: Inhibition of hypha growth on malt extract agar, Rhizopus nigricans; settings: Rhizopus stolonifer, read-out: Controlling effect (growth inhibition rate) RHS
Experimental: as §1, §2

Tyromyces palustris = experiment: Inhibition of hypha growth on malt extract agar, Tyromyces palustris; settings: read-out: Controlling effect (growth inhibition rate) TYP
Experimental: as §1, §2

Chaetomium globosum = experiment: Inhibition of hypha growth on malt extract agar, Chaetomium globosum; settings: read-out: Controlling effect (growth inhibition rate) CHG
Experimental: as §1, §2, §3

[1] = tested on: Cladosporium cladosporioides; experiment: Inhibition of hypha growth on malt extract agar, Cladosporium cladosporioides; settings: read-out: Controlling effect (growth inhibition rate) CLC
Experimental: as §1, §2

SMILES | inhibition at 50 ppm (Coriolus versicolor) [%] | inhibition at 50 ppm (Alternaria mali) [%] | inhibition at 50 ppm (Serpula lacrymans) [%] | inhibition at 50 ppm (Aspergillus niger) [%] | inhibition at 50 ppm (Trichoderma viride) [%] | inhibition at 50 ppm (Fusarium oxysporum) [%] | inhibition at 50 ppm (Rhizopus nigricans) [%] | inhibition at 50 ppm (Tyromyces palustris) [%] | inhibition at 50 ppm (Chaetomium globosum) [%] | inhibition at 50 ppm [1] [%]
CC(C)(C)c1ccc(S(=O)(=O)c2snc(OC(F)F)c2C#N)cc1 [Compound 117] | 100 | 85 to 99 | 100 | 100 | 100 | 85 to 99 | 100 | 85 to 99 | 100 | 85 to 99
CC(C)(C)S(=O)(=O)c1snc(OC(F)F)c1C#N [Compound 29] | 100 | 85 to 99 | 85 to 99 | 85 to 99 | 100 | 85 to 99 | 100 | 100 | 100 | 85 to 99
COc1nsc(S(=O)(=O)c2ccc(F)cc2)c1C#N [Compound 96] | 100 | 100 | 100 | 100 | 100 | 100 | 100 | 100 | 100 | 100
CC(C)S(=O)(=O)c1snc(OC[Si](C)(C)C)c1C#N [Compound 77, 3-trimethylsilylmethoxy-4-cyano-5-isopropylsulfonylisothiazole] | 100 | 85 to 99 | 100 | 85 to 99 | 100 | 85 to 99 | 100 | 85 to 99 | 100 | 85 to 99
C=CCOc1nsc(S(=O)(=O)c2ccc(C)cc2)c1C#N [Compound 119] | 100 | 85 to 99 | 100 | 85 to 99 | 100 | 85 to 99 | 100 | 85 to 99 | 100 | 100
N#Cc1c(OC(F)F)nsc1S(=O)(=O)C1CCCC1 [Compound 30, 3-difluoromethoxy-4-cyano-5-cyclopentylsulfonylisothiazole] | 100 | 85 to 99 | 85 to 99 | 85 to 99 | 100 | 85 to 99 | 100 | 100 | 100 | 85 to 99
COc1ccc(S(=O)(=O)c2snc(OC)c2C#N)cc1 [Compound 94] | 100 | 100 | 100 | 100 | 100 | 100 | 100 | 100 | 100 | 100
CCOCCOc1nsc(S(C)(=O)=O)c1C#N [Compound 73] | 100 | 85 to 99 | 100 | 85 to 99 | 85 to 99 | 100 | 100 | 100 | 100 | 85 to 99
C=C(C)COc1nsc([S+](C)[O-])c1C#N (stereo not shown) [Compound 17] | 85 to 99 | 100 | 100 | 100 | 100 | 100 | 100 | 100 | 100 | 100
CCCOc1nsc(S(C)(=O)=O)c1C#N [Compound 43] | 100 | 85 to 99 | 100 | 85 to 99 | 85 to 99 | 85 to 99 | 100 | 100 | 85 to 99 | 100
N#Cc1c(O)nsc1S(=O)(=O)c1ccc(F)cc1 [Compound 11] | 85 to 99 | 55 to 84 | 55 to 84 | 55 to 84 | 85 to 99 | 85 to 99 | 85 to 99 | 85 to 99 | 85 to 99 | 55 to 84
CC=CCOc1nsc(S(C)(=O)=O)c1C#N [Compound 57] | 100 | 85 to 99 | 100 | 85 to 99 | 85 to 99 | 100 | 85 to 99 | 100 | 85 to 99 | 100
CCS(=O)(=O)c1snc(OCC=CCl)c1C#N [Compound 59] | 100 | 100 | 100 | 100 | 100 | 100 | 100 | 100 | 100 | 100
Cc1ccc(S(=O)(=O)c2snc(O)c2C#N)cc1 [Compound 2] | 85 to 99 | 55 to 84 | 55 to 84 | 55 to 84 | 85 to 99 | 55 to 84 | 85 to 99 | 55 to 84 | 85 to 99 | 55 to 84
CCOC(=O)C[S+]([O-])c1snc(OC)c1C#N (stereo not shown) [Compound 18] | 100 | 85 to 99 | 100 | 100 | 100 | 85 to 99 | 100 | 100 | 100 | 100
CCC(C)S(=O)(=O)c1snc(OC(F)F)c1C#N (stereo not shown) [Compound 28, 3-difluoromethoxy-4-cyano-5-s-butylsulfonylisothiazole] | 100 | 100 | 100 | 85 to 99 | 100 | 100 | 100 | 100 | 85 to 99 | 85 to 99
CCOc1nsc(S(=O)(=O)c2ccc(Cl)cc2)c1C#N [Compound 100] | 100 | 100 | 100 | 100 | 100 | 100 | 100 | 100 | 100 | 100
COC(=O)CS(=O)(=O)c1snc(OC)c1C#N [Compound 81] | 100 | 100 | 100 | 100 | 100 | 100 | 100 | 100 | 100 | 100
COc1nsc(S(=O)(=O)c2c(C)cc(C)cc2C)c1C#N [Compound 97] | 100 | 100 | 100 | 85 to 99 | 100 | 100 | 100 | 100 | 100 | 85 to 99
N#Cc1c(OC(F)F)nsc1S(=O)(=O)c1ccc(Cl)cc1 [Compound 111] | 85 to 99 | 100 | 85 to 99 | 100 | 100 | 85 to 99 | 100 | 100 | 100 | 100
Cc1ccc(Cl)cc1S(=O)(=O)c1snc(OC(F)F)c1C#N [Compound 113] | 100 | 100 | 100 | 100 | 100 | 100 | 100 | 100 | 100 | 100
COC(=O)COc1nsc(S(=O)(=O)c2ccccc2)c1C#N [Compound 109] | 100 | 100 | 100 | 100 | 100 | 100 | 100 | 100 | 100 | 100
